Biological target: T1, PDK1 kinase (Homo sapiens, UniProt O15530)
T1 sequence (O15530 1-556): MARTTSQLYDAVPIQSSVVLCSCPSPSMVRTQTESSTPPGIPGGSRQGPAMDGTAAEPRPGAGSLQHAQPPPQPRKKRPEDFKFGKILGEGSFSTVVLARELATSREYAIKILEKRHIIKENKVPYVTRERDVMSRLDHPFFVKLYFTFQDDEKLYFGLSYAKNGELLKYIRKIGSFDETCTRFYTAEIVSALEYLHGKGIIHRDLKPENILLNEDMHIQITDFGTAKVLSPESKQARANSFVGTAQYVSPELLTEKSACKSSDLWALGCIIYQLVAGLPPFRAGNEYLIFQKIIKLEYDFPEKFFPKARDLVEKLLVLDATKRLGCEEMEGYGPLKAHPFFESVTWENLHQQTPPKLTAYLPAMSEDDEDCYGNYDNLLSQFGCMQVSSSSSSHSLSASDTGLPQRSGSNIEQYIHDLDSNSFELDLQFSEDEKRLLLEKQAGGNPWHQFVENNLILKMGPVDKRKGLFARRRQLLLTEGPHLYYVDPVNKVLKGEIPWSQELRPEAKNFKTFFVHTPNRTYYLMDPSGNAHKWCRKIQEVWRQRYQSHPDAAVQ
Assay: PDK1 Kinase Alpha Screen Assay
Assay type: biochemical
Details: Table 1; 10 μM ATP, 50 nM PDK1-4 peptide
In short: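 PDK1 phosphorylation of 50 nM biotinylated PDK1-4 peptide with 10 μM ATP in 50 mM Tris pH 7.5, 10 mM MgCl2, 0.1% BSA, 0.01% Tween-20, 2 mM DTT, 2.5% DMSO, 3-18 h. Stopped with EDTA; phosphopeptide detected by AlphaScreen using phospho-(Ser/Thr) PKA substrate antibody on protein A acceptor and streptavidin donor beads, overnight at room temperature.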

SMILES | IC50 [µM]
C#Cc1ccc2nc(Nc3cc(CN4CCCC4)cc(NC(C)=O)c3)ncc2c1 [Example 127, N-(3-(6-ethynylquinazolin-2-ylamino)-5-(pyrrolidin-1-ylmethyl)phenyl)-acetamide] | < 5
CC(=O)Nc1cc(CN2CCOCC2)cc(Nc2ncc3cc(Br)cc(Cl)c3n2)c1 [Example 128, N-(3-(6-bromo-8-chloro-quinazolin-2-ylamino)-5-(morpholinomethyl)-phenyl)-acetamide] | < 5
C#Cc1cc(Cl)c2nc(Nc3cc(CN4CCOCC4)cc(NC(C)=O)c3)ncc2c1 [Example 129, N-(3-(8-chloro-6-ethynyl-quinazolin-2-ylamino)-5-(morpholinomethyl)-phenyl)-acetamide] | < 5
C#Cc1ccc2nc(Nc3cc(NC(C)=O)cc(NC(C)=O)c3)ncc2c1Cl [Example 130, N,N′-(5-(5-chloro-6-ethynylquinazolin-2-ylamino)-1,3-phenylene-) diacetamide] | < 5
CC(=O)Nc1cc(CN2CCOCC2)cc(Nc2ncc3cc(-c4nccs4)ccc3n2)c1 [Example 133, N-(3-(morpholinomethyl)-5-(6-(thiazol-2-yl)-quinazolin-2-ylamino)-phenyl)acetamide] | < 5
CC(=O)Nc1cc(CN(C)C)cc(Nc2ncc3cc(Br)cc(F)c3n2)c1 [Example 135, N-(3-(6-Bromo-8-fluoroquinazolin-2-ylamino)-5-((dimethylamino)-methyl)phenyl)acetamide] | < 5
CC(=O)Nc1cc(CN2CCOCC2)cc(Nc2ncc3cc(-c4cnoc4)ccc3n2)c1 [Example 136, N-(3-(6-(isoxazol-4-yl)quinazolin-2-ylamino)-5-(morpholinomethyl)-phenyl)-acetamide] | < 5
C#Cc1ccc2nc(Nc3cc(CN)cc(NC(C)=O)c3)ncc2c1 [Example 137, N-(3-(aminomethyl)-5-(6-ethynylquinazolin-2-ylamino)phenyl)acetamide] | < 5
C#Cc1ccc2nc(Nc3ccccc3)ncc2c1 [Example 138, 6-ethynyl-N-phenyl-quinazolin-2-amine] | < 5
C#Cc1cc(F)c2nc(Nc3cc(CN(C)C)cc(NC(C)=O)c3)ncc2c1 [Example 139, N-(3-((Dimethylamino)methyl)-5-(6-ethynyl-8-fluoroquinazolin-2-ylamino)-phenyl)acetamide] | < 5
COc1cc2nc(Nc3cc(CN4CCOCC4)cc(NC(C)=O)c3)ncc2cc1-c1nccs1 [Example 140, N-(3-(7-methoxy-6-(thiazol-2-yl)quinazolin-2-ylamino)-5-(morpholino-methyl)phenyl)-acetamide] | < 5
C#Cc1ccc2nc(Nc3cc(CN4CCNCC4)cc(NC(C)=O)c3)ncc2c1 [Example 141, N-(3-(6-ethynylquinazolin-2-ylamino)-5-(piperazin-1-ylmethyl)phenyl)acetamide] | < 5
C#Cc1ccc2nc(Nc3cc(CN4CCOCC4)cc(NC(=O)C(C)C)c3)ncc2c1 [Example 142, N-(3-(6-ethynylquinazolin-2-ylamino)-5-(morpholino-methyl)phenyl)-isobutyramide] | < 5
C#Cc1ccc2nc(Nc3cc(CN4CCOCC4)cc(NS(C)(=O)=O)c3)ncc2c1 [Example 143, N-(3-(6-ethynylquinazolin-2-ylamino)-5-(morpholino-methyl)phenyl)methane-sulfonamide] | < 5
Brc1ccc2nc(Nc3cc(CN4CCOCC4)cc(-c4nnn[nH]4)c3)ncc2c1 [Example 144, 6-bromo-N-(3-(morpholinomethyl)-5-(1H-tetrazol-5-yl)phenyl)-quinazolin-2-amine] | < 5
CC(=O)Nc1cc(CN2CCOCC2)cc(Nc2ncc3cc(Br)ccc3n2)c1 [Example 145, N-(3-(6-bromoquinazolin-2-ylamino)-5-(morpholino-methyl)phenyl)acetamide] | < 5
C#Cc1ccc2nc(Nc3cc(NC(C)=O)cc(-c4ccncc4)c3)ncc2c1 [Example 146, N-(3-(6-ethynylquinazolin-2-ylamino)-5-(pyridin-4-yl)phenyl)acetamide] | < 5
CC(=O)Nc1cc(CN(C)C)cc(Nc2ncc3cc(Br)ccc3n2)c1 [Example 147, N-(3-(6-bromoquinazolin-2-ylamino)-5-((dimethyl-amino)methyl)phenyl)-acetamide] | < 5

SMILES | IC50 [µM]
CC#Cc1ccc2nc(Nc3cc(CN(C)C)cc(NC(C)=O)c3)ncc2c1 [Example 148, N-(3-((dimethylamino)-methyl)-5-(6-(prop-1-ynyl)quinazolin-2-ylamino)phenyl)acetamide] | < 5
C#Cc1ccc2nc(Nc3cc(CN4CCOCC4)cc(-c4nnn[nH]4)c3)ncc2c1 [Example 149, 6-ethynyl-N-(3-(morpholinomethyl)-5-(1H-tetrazol-5-yl)phenyl)-quinazolin-2-amine] | < 5
COc1cc2nc(Nc3ccc(N4CCOCC4)cc3)ncc2cc1-c1cn[nH]c1 [Example 150, 7-methoxy-N-(4-morpholinophenyl)-6-(1H-pyrazol-4-yl)quinazolin-2-amine] | < 5
N#Cc1cc(CN2CCOCC2)cc(Nc2ncc3cc(Br)ccc3n2)c1 [Example 151, 3-(6-bromoquinazolin-2-ylamino)-5-(morpholino-methyl)benzonitrile] | < 5
C#Cc1ccc2nc(Nc3cc(C#N)cc(CN4CCOCC4)c3)ncc2c1 [Example 152, 3-(6-ethynylquinazolin-2-ylamino)-5-(morpholino-methyl)benzonitrile] | < 5
CC(=O)Nc1cc(Nc2ncc3cc(Br)ccc3n2)cc(-c2cn[nH]c2)c1 [Example 153, N-(3-(6-bromoquinazolin-2-ylamino)-5-(1H-pyrazol-4-yl)phenyl)acetamide] | < 5
C#Cc1ccc2nc(Nc3cc(OC)cc(-n4nnnc4C)c3)ncc2c1 [Example 156, 6-ethynyl-N-(3-methoxy-5-(5-methyl-1H-tetrazol-1-yl)phenyl)quinazolin-2-amine] | < 5
C#Cc1ccc2nc(Nc3cc(-c4ccncc4)cc(N4CCOCC4)c3)ncc2c1 [Example 157, 6-ethynyl-N-(3-morpholino-5-(pyridin-4-yl)phenyl)quinazolin-2-amine] | < 5
C#Cc1ccc2nc(Nc3cc(-c4cn[nH]c4)cc(N4CCOCC4)c3)ncc2c1 [Example 158, 6-ethynyl-N-(3-morpholino-5-(1H-pyrazol-4-yl)phenyl)-quinazolin-2-amine] | < 5
C#Cc1ccc2nc(Nc3cc(-c4cccnc4)cc(N4CCOCC4)c3)ncc2c1 [Example 159, 6-ethynyl-N-(3-morpholino-5-(pyridin-3-yl)phenyl)quinazolin-2-amine] | < 5
C#Cc1ccc2nc(Nc3cc(-c4ccncc4F)cc(N4CCOCC4)c3)ncc2c1 [Example 160, 6-ethynyl-N-(3-(3-fluoro-pyridin-4-yl)-5-morpholinophenyl)-quinazolin-2-amine] | < 5
C#Cc1ccc2nc(Nc3cc(CN4CCOCC4)cc(NC(C)=O)c3)ncc2c1F [Example 161, N-(3-(6-ethynyl-5-fluoro-quinazolin-2-ylamino)-5-(morpholinomethyl)-phenyl)-acetamide] | < 5
C#Cc1ccc2nc(Nc3cc(CN4CCOCC4)cc(NS(C)(=O)=O)c3)ncc2c1F [Example 162, N-(3-(6-ethynyl-5-fluoro-quinazolin-2-ylamino)-5-(morpholinomethyl)-phenyl)-methanesulfonamide] | < 5
COc1cc(-c2nccs2)c(-c2nccs2)c2cnc(Nc3ccc(N4CCOCC4)cc3)nc12 [Example 169, 8-methoxy-N-(4-morpholinophenyl)-5,6-di(thiazol-2-yl)quinazolin-2-amine] | < 5
COc1cc(-c2nccs2)c(-c2nccs2)c2cnc(Nc3ccc(C(=O)N4CCOCC4)cc3)nc12 [Example 170, (4-(8-methoxy-5,6-di(thiazol-2-yl)quinazolin-2-ylamino)phenyl)-(morpholino)methanone] | 5 to 10
C#Cc1cc2cnc(Nc3cc(OC)cc(-n4nnnc4C)c3)nc2cc1OC [Example 172, 6-ethynyl-7-methoxy-N-(3-methoxy-5-(5-methyl-1H-tetrazol-1-yl)phenyl)-quinazolin-2-amine] | 5 to 10
COc1cc2cnc(Nc3cc(CN4CCOCC4)cc(NC(C)=O)c3)nc2cc1OC [Example 174, N-(3-(6,7-dimethoxy-quinazolin-2-ylamino)-5-(morpholinomethyl)-phenyl)acetamide] | < 5
COc1cc2nc(Nc3cc(CN4CCOCC4)cc(NC(C)=O)c3)ncc2cc1-c1cn[nH]c1 [Example 175, N-(3-(7-methoxy-6-(1H-pyrazol-4-yl)quinazolin-2-ylamino)-5-(morpholino-methyl)phenyl)acetamide] | < 5
